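Protocol summary: plate cells (96-well), add compound at 5 concentrations, incubate 48 h, interpolate endpoints linearly. GI50 marks 50% less growth.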 Activity calls are given as the source filed them. No stated cut-off is given here; in the data, active = GI50 up to about 1.1 µM and inactive = higher.
How the values were obtained:
Experiment in all cases: NCI-60 cell line screen, 48 h
SK-MEL-2 = system: SK-MEL-2
T47D = system: T47D
OVCAR-5 = system: OVCAR-5
HT-29 = system: HT-29
SF-295 = system: SF-295
HOP-62 = system: HOP-62
SF-539 = system: SF-539
ACHN = system: ACHN
KM12 = system: KM12
HCT-15 = system: HCT-15
SNB-19 = system: SNB-19
SK-OV-3 = system: SK-OV-3
OVCAR-3 = system: OVCAR-3
CAKI-1 = system: CAKI-1
IGROV-1 = system: IGROV-1
LOX IMVI = system: LOX IMVI
RPMI-8226 = system: RPMI-8226
BT-549 = system: BT-549
SN12C = system: SN12C

Compound	GI50 (SK-MEL-2)	GI50 (T47D)	GI50 (OVCAR-5)	GI50 (HT-29)	GI50 (SF-295)	GI50 (HOP-62)	GI50 (SF-539)	GI50 (ACHN)	GI50 (KM12)	GI50 (HCT-15)	GI50 (SNB-19)	GI50 (SK-OV-3)	GI50 (OVCAR-3)	GI50 (CAKI-1)	GI50 (IGROV-1)	GI50 (LOX IMVI)	GI50 (RPMI-8226)	GI50 (BT-549)	GI50 (SN12C)
CN1CC(c2ccccc2)=CC2=C1C=CC(=N)/C2=N\N	48.2 µM (inactive)	> 100 µM (inactive)	> 100 µM (inactive)	> 100 µM (inactive)	75.3 µM (inactive)	71.8 µM (inactive)	> 100 µM (inactive)	> 100 µM (inactive)	> 100 µM (inactive)	> 100 µM	86.9 µM (inactive)	> 100 µM (inactive)	> 100 µM (inactive)	5.46 µM (inactive)	> 100 µM (inactive)	> 100 µM (inactive)	> 100 µM (inactive)	52.2 µM (inactive)	> 100 µM (inactive)
Clc1ccc(-c2nnc(-c3cccc4ccccc34)o2)cc1Cl	> 100 µM (inactive)	> 100 µM (inactive)	> 100 µM (inactive)	> 100 µM (inactive)	> 100 µM (inactive)	> 100 µM (inactive)	> 100 µM (inactive)	> 100 µM (inactive)	> 100 µM (inactive)	> 100 µM	> 100 µM (inactive)	> 100 µM (inactive)	> 100 µM (inactive)	> 100 µM (inactive)	4.93 µM (inactive)	> 100 µM (inactive)	> 100 µM (inactive)	> 100 µM (inactive)	> 100 µM (inactive)
OC(c1cc(-c2ccc(Cl)cc2)nc2ccccc12)C1CCCCN1 (stereo not given)	2.03 µM (inactive)	1.77 µM (inactive)	2.16 µM (inactive)	1.9 µM (inactive)	1.94 µM (inactive)	1.61 µM (inactive)	1.79 µM (inactive)	1.95 µM (inactive)	2.26 µM (inactive)	2.46 µM	3.3 µM (inactive)	2.16 µM (inactive)	2.07 µM (inactive)	2.32 µM (inactive)	1.76 µM (inactive)	0.982 µM (active)	1.37 µM (inactive)	5.09 µM (inactive)	1.75 µM (inactive)
c1cc(CCN2CCCCC2)ccn1	> 100 µM (inactive)	> 100 µM (inactive)	> 100 µM (inactive)	> 100 µM (inactive)	> 100 µM (inactive)	> 100 µM (inactive)	> 100 µM (inactive)	> 100 µM (inactive)	> 100 µM (inactive)	> 100 µM	> 100 µM (inactive)	> 100 µM (inactive)	> 100 µM (inactive)	> 100 µM (inactive)	> 100 µM (inactive)	> 100 µM (inactive)	> 100 µM (inactive)	> 100 µM (inactive)	> 100 µM (inactive)
CN(C)CCn1c(=O)c2ccc(NCCCN(C)CCCNc3ccc4c(=O)n(CCN(C)C)c(=O)n5c6ccc([N+](=O)[O-])cc6c(=O)c3c45)c3c(=O)c4cc([N+](=O)[O-])ccc4n(c1=O)c23	0.0346 µM (active)	0.0968 µM (active)	< 0.037 µM (active)	< 0.01 µM (active)	0.0136 µM (active)	< 0.01 µM (active)	< 0.01 µM (active)	< 0.01 µM (active)	< 0.01 µM (active)	< 0.015 µM	< 0.01 µM (active)	< 0.0258 µM (active)	< 0.033 µM (active)	< 0.033 µM (active)	< 0.01 µM (active)	< 0.01 µM (active)	< 0.01 µM (active)	0.0376 µM (active)	< 0.01 µM (active)
NS(=O)(=O)c1ccc(NNc2c3ccccc3nc3ccccc23)cc1	13.5 µM (inactive)	7.52 µM (inactive)	12.8 µM (inactive)	7.73 µM (inactive)	12 µM (inactive)	12.2 µM (inactive)	12.2 µM (inactive)	11.4 µM (inactive)	11.6 µM (inactive)	10 µM	14.7 µM (inactive)	14.8 µM (inactive)	10.2 µM (inactive)	13 µM (inactive)	11.2 µM (inactive)	7.21 µM (inactive)	9.4 µM (inactive)	10.3 µM (inactive)	14 µM (inactive)
C=C1C(=O)OC2/C=C(/CO)C3(O)CC(O)C(C)(CC(OC(=O)/C(C)=C/C)C12)O3 (stereo not given)	22.4 µM (inactive)	10.9 µM (inactive)	21 µM (inactive)	8.09 µM (inactive)	36.3 µM (inactive)	49.3 µM (inactive)	23.9 µM (inactive)	6.82 µM (inactive)	20.5 µM (inactive)	7.57 µM	36.5 µM (inactive)	21.4 µM (inactive)	10.2 µM (inactive)	4.33 µM (inactive)	17.2 µM (inactive)	11 µM (inactive)	2.51 µM (inactive)	4.52 µM (inactive)	15.7 µM (inactive)
COc1ccc2c(c1)NC1(CCN(CCCC(=O)c3ccc(F)cc3)CC1)N=N2	17.9 µM (inactive)	22.2 µM (inactive)	23.5 µM (inactive)	24.6 µM (inactive)	19.6 µM (inactive)	24.7 µM (inactive)	19.8 µM (inactive)	27.5 µM (inactive)	20.1 µM (inactive)	20.8 µM	35.3 µM (inactive)	33.4 µM (inactive)	23.3 µM (inactive)	29.6 µM (inactive)	21 µM (inactive)	18.7 µM (inactive)	16.6 µM (inactive)	26.4 µM (inactive)	21 µM (inactive)
CCSC1=N/C(=C\c2ccccc2O)C(Nc2ccc(C)cc2)=N1	19.6 µM (inactive)	50 µM (inactive)	> 100 µM (inactive)	> 100 µM (inactive)	34.4 µM (inactive)	78.2 µM (inactive)	75 µM (inactive)	83.6 µM (inactive)	24.5 µM (inactive)	59.7 µM	45.8 µM (inactive)	42.7 µM (inactive)	22.4 µM (inactive)	86.1 µM (inactive)	32.8 µM (inactive)	> 100 µM (inactive)	> 100 µM (inactive)	> 100 µM (inactive)	66.7 µM (inactive)
COc1ccc(OCC(=N/NC(=O)c2ccncc2)/N=C/c2ccncc2)cc1	> 100 µM (inactive)	> 100 µM (inactive)	> 100 µM (inactive)	57 µM (inactive)	42.9 µM (inactive)	71.8 µM (inactive)	> 100 µM (inactive)	> 100 µM (inactive)	60 µM (inactive)	51.5 µM	> 100 µM (inactive)	94.4 µM (inactive)	48.6 µM (inactive)	> 100 µM (inactive)	91.2 µM (inactive)	> 100 µM (inactive)	40.7 µM (inactive)	> 100 µM (inactive)	> 100 µM (inactive)
CCCCCCCCC/C=C/C=C/C(=O)NCC(=O)NC1C(O)C(O)C(Nc2ncnc3[nH]cnc23)OC1C(O)CO (stereo not given)	0.0056 µM (active)	0.169 µM (active)	0.00174 µM (active)	0.0011 µM (active)	0.00796 µM (active)	0.00412 µM (active)	0.00448 µM (active)	0.00953 µM (active)	0.00263 µM (active)	0.362 µM	0.00175 µM (active)	0.001 µM (active)	0.000601 µM (active)	0.00692 µM (active)	4.88e-05 µM (active)	0.00234 µM (active)	0.0018 µM (active)	0.023 µM (active)	0.0136 µM (active)
COC(C(=O)C(O)C(C)O)C1CC2C=C3C=C(OC4CC(OC5CC(O)C(OC)C(C)O5)C(OC(C)=O)C(C)O4)C(C)C(O)=C3C(O)=C2C(=O)C1OC1CC(OC2CC(OC3CC(C)(O)C(OC(=O)C(C)C)C(C)O3)C(O)C(C)O2)C(O)C(C)O1 (stereo not given)	< 0.01 µM (active)	< 0.01 µM (active)	< 0.01 µM (active)	< 0.01 µM (active)	< 0.01 µM (active)	< 0.01 µM (active)	< 0.01 µM (active)	< 0.01 µM (active)	< 0.01 µM (active)	< 0.01 µM	< 0.01 µM (active)	< 0.01 µM (active)	< 0.01 µM (active)	< 0.01 µM (active)	< 0.01 µM (active)	< 0.01 µM (active)	< 0.01 µM (active)	< 0.01 µM (active)	< 0.01 µM (active)
O=C1OC(c2ccccc2)=N/C1=C\c1ccc(N(CCCl)CCCl)cc1	> 27.2 µM (inactive)	14.5 µM (inactive)	> 100 µM (inactive)	> 100 µM (inactive)	> 100 µM (inactive)	> 89.5 µM (inactive)	> 100 µM (inactive)	> 62.5 µM (inactive)	> 92.3 µM (inactive)	> 100 µM	> 100 µM (inactive)	> 100 µM (inactive)	> 76.2 µM (inactive)	> 100 µM (inactive)	> 100 µM (inactive)	> 91.4 µM (inactive)	35.1 µM (inactive)	> 100 µM (inactive)	> 92 µM (inactive)
C=C1CC2(CC(c3ccccc3C)OC(c3ccccc3C)C2)OC1=O (stereo not given)	2 µM (inactive)	1.72 µM (inactive)	13.2 µM (inactive)	1.82 µM (inactive)	15.8 µM (inactive)	10.7 µM (inactive)	1.62 µM (inactive)	2.36 µM (inactive)	2.18 µM (inactive)	1.95 µM	16.3 µM (inactive)	11.6 µM (inactive)	1.78 µM (inactive)	1.87 µM (inactive)	1.69 µM (inactive)	1.58 µM (inactive)	0.473 µM (active)	1.92 µM (inactive)	1.97 µM (inactive)
CC1C(=O)OC2CC[N+]3([O-])CC=C(COC(=O)C(C)(O)C1(C)O)C23 (stereo not given)	> 100 µM (inactive)	> 100 µM (inactive)	> 100 µM (inactive)	> 100 µM (inactive)	> 100 µM (inactive)	> 100 µM (inactive)	> 100 µM (inactive)	> 100 µM (inactive)	> 100 µM (inactive)	> 100 µM	> 100 µM (inactive)	> 100 µM (inactive)	> 100 µM (inactive)	> 100 µM (inactive)	> 100 µM (inactive)	> 100 µM (inactive)	> 100 µM (inactive)	> 100 µM (inactive)	> 100 µM (inactive)

— ChEMBL document CHEMBL1201862, “PubChem BioAssay data set” (2004)
